For assay [1], the system named is MV4-11 cells. Briefly: Cytotoxicity against MV4-11 cells (CellTiter-Glo). The format is cell-based. The settings on record: Homo sapiens, incubated for 72 hours, CellTiter-Glo chemiluminescence. The protocol:
Determination of the IC50 Value of the Compound's Cytotoxicity Against MV4-11 Cells
MV-4-11 cells were cultured with IMDM complete medium (IMDM+10% fetal bovine serum+1% Penicillin-Streptomycin, a mixture of penicillin-streptomycin). • 2. MV-4-11 cells in good condition were collected and washed twice with DPBS ([…] phosphate buffered saline solution). • 3. MV-4-11 cells were resuspended with IMDM complete medium, the cell density was adjusted to 1.11×10^6 cells/mL, and the MV-4-11 cells were added to 96-well plates at 90 μL per well. • 4. A compound solution with 10-fold concentration was prepared with IMDM complete medium, 10 μL of the compound solution with 10-fold concentration was added to the cells in the 96-well plate, mixed well, and then the 96-well plate was placed in a 5% CO2 incubator at 37° C. and incubated for 72 hours. • 5. After the incubation, the 96-well plate was taken out and equilibrated for 30 minutes at room temperature. Then 100 μL of CellTiter Glo reagent was added to each well and mixed on a horizontal shaker for 2 minutes. • 6. The 96-well plate was removed, equilibrated at room temperature for 10 minutes, and the chemiluminescence value was detected on a microplate reader.
For orientation: In ATP-based viability assays light output follows the ATP content of the culture.

Assay [2] deals with T1, IRAK4 kinase (Homo sapiens, UniProt Q9NWZ3).
T1 sequence (Q9NWZ3 1-460): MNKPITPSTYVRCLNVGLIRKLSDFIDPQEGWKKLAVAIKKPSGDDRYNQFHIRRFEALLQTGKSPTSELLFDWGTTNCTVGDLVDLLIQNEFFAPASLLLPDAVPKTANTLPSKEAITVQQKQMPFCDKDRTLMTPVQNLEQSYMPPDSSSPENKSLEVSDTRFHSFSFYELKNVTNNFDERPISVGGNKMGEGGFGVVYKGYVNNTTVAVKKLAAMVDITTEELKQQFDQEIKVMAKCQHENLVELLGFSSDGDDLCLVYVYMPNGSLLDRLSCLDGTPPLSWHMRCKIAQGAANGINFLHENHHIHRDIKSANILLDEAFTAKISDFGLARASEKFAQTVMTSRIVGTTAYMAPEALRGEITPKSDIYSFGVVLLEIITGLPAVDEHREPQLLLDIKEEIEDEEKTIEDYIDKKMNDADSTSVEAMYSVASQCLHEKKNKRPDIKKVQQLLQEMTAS
Briefly: Kinase inhibition, fluorescence microfluidic mobility shift assay (IRAK4). The format is biochemical. Particulars: substrate peptide FAM-P8 3 μM, ATP 10 μM; one hour at 28° C.; assayed in duplicate.

Assay [3] deals with T2, FLT3 kinase (Homo sapiens, UniProt P36888).
T2 sequence (P36888 564-993): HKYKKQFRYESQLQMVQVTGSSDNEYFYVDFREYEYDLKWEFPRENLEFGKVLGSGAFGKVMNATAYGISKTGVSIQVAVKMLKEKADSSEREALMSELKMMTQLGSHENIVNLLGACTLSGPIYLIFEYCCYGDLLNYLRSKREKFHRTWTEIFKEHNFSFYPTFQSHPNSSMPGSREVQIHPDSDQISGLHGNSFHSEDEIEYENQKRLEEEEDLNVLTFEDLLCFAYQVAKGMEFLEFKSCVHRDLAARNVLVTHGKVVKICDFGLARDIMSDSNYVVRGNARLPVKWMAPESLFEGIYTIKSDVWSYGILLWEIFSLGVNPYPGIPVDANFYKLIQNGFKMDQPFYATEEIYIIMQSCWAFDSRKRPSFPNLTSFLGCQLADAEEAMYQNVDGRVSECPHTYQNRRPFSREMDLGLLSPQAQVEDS
Kind of assay: Kinase inhibition, fluorescence microfluidic mobility shift assay (FLT3). The format is biochemical. The settings on record: substrate peptide FAM-P2 3 μM, ATP 97 μM; one hour at 28° C.; assayed in duplicate.
Experimental: Based on the experimental method of fluorescence microfluidic mobility shift assay, the IC50 value of the compound for competitive binding of ATP to kinases IRAK4 and FLT3 was determined. The initial detection concentration of the compound was 10 μM, which was diluted to 0.38 nM with a 4-fold gradient and assayed in duplicate. In this case, commercially available staurosporine was the standard control for the assay.
Information on reagents and consumables is as follows: • IRAK4 kinase (Carna, Cat. No. 09-145, Lot. No. 14CBS-0020 H) • FLT3 kinase (Carna, Cat. No. 08-154, Lot. No. 07CBS-2350) • Substrate peptide FAM-P2 (GL Biochem, Cat. No. 112394, Lot. No. P131014-XP112394) • Substrate peptide FAM-P8 (GL Biochem, Cat. No. 112396, Lot. No. P170731-SY112396) • ATP (adenosine triphosphate, Sigma, Cat. No. A7699-1G, CAS No. 987-65-5) • DMSO (dimethyl sulfoxide, Sigma, Cat. No. D2650) • EDTA (ethylenediaminetetraacetic acid, Sigma, Cat. No. E5134, CAS No. 60-00-4) • Staurosporine (Selleckchem, Cat. No. 51421) • HEPES (4-(2-Hydroxyethyl)-1-piperazineethanesulfonic acid, Gibco, Cat. No. 15630-080) • Brij-35 solution (Polyoxyethylene lauryl ether, Sigma, Cat. No. B41840-100 mL) • DTT (dithiothreitol, Sigma, Cat. No. D0632-20G) • 0.2% Coating Reagent #3 (0.2% coating reagent, Perkin Elmer, Cat. No. 760050) • 96-well plate (Corning, Cat. No. 3365) • 384-well plate (Corning, Cat. No. 3573) Experimental operation method: • 1) FLT3 and IRAK4 kinases were dissolved in the kinase buffer (50 mM HEPES pH 7.5, 10 mM MgCl2, 2 mM DTT, and 0.01% Brij-35) at final concentrations of 0.9 nM, 30 nM, and 6 nM, respectively. • 2) The substrate peptide FAM-P2 and the substrate peptide FAM-P8, together with ATP, were dissolved in the above kinase buffer, respectively, where the final concentrations of the substrate peptide FAM-P2 and ATP for the determination of FLT3 were 3 μM and 97 μM, respectively; and the final concentrations of the substrate peptide FAM-P8 and ATP for the determination of IRAK4 were 3 μM and 10 μM, respectively. • 3) Compound dilution: The compound was first diluted to 50 μM, and then diluted downward with DMSO in a 4-fold gradient. In this case, the solution without compound and kinase served as the blank control, corresponding to the “minimum value” shown below; the solution without compound but containing kinase, adenosine triphosphate, DMSO, and the buffer served as the positive control, corresponding to the “maximum value” shown below. • 4) Kinase reaction and termination: 10 μL of the kinase buffer was added to a 384-well plate containing 5 μL of the compound to be tested, and the mixture was incubated for 10 minutes at room temperature; another 10 μL, of buffer containing the substrate peptide and adenosine triphosphate was added to the 384-well plate, and after incubation for one hour at 28° C., 25 μL, of termination solution (100 mM HEPES pH 7.5, 50 mM EDTA, 0.2% Coating Reagent #3, and 0.015% Brij-35) was added to each well for reaction termination. • 5) Data reading: CaliperEZ Reader II instrument was used to read the conversion rate data. Setting conditions: downstream voltage as −500 V, upstream voltage as −2250 V, base pressure as −0.5 PSI, and screening pressure as −1.2 PSI. • 6) Data calculation: the conversion rate data was copied from CaliperEZ Reader II, and the conversion rate was converted into inhibition rate data.

As a reminder, the IC50 is the concentration that gives 50% inhibition. Turning to `Cc1cc(-c2nc(C(=O)Nc3cc4cn(CCC5CCNC5=O)nc4cc3C(C)(C)O)co2)ccn1` (stereo not shown) [II-1], the IC50 in assay [1] was determined as 19.4 nM; in assay [2] it was 11 nM; in assay [3], 0.34 nM.

As to `COc1cc2nn(CCC3CCNC3=O)cc2cc1NC(=O)c1coc(-c2ccnc(C)c2)n1` (stereo not shown) [II-2], the IC50 in assay [1] stood at 14.8 nM; in assay [2] it was 8.4 nM; in assay [3], 0.52 nM.

Regarding `COc1cn2nc(C3CCNCC3)cc2cc1NC(=O)c1coc(-c2ccnc(C)c2)n1` [II-3F], the results for the IC50 in assay [1], in assay [2] and in assay [3] were 15 nM, 6 nM and 2.3 nM, respectively.

For `COc1cc2nn(CCC3CCNC3=O)cc2cc1NC(=O)c1coc(Br)n1` (stereo not shown) [II-4], the IC50 in assay [2] came out at 72 nM; in assay [3], 12 nM.

As to `COc1cc2nn(C3CCNCC3)cc2cc1NC(=O)c1nc(-c2ccnc(C)c2)c[nH]1` [II-5C], the IC50 stood at 0.78 nM in assay [1], 3.5 nM in assay [2] and 0.19 nM in assay [3].

For `COc1cc2nn(C3CCNCC3)cc2cc1NC(=O)c1coc(N2CCN(C(C)=O)CC2)n1` [II-6], the IC50 in assay [2] turned out to be 178 nM.

Consider `COc1cc2nn(C3CCNCC3)cc2cc1NC(=O)c1coc(N2CCS(=O)(=O)CC2)n1` [II-7C], for which the IC50 in assay [2] turned out to be 94 nM; in assay [3], 100 nM.

For `COc1cc2nn(CCC3CCNC3=O)cc2cc1NC(=O)c1coc(-c2ccnc(C(F)(F)F)c2)n1` (stereo not shown) [II-8], the IC50 in assay [2] amounted to 25 nM; in assay [3], 9.5 nM.

On to `COc1cc2nn(C3CCNCC3)cc2cc1NC(=O)c1coc(-c2ccccc2)n1` [II-9C], for which, in assay [2], the IC50 was determined as 9.4 nM.

Regarding `COc1cc2nn(C3CCNCC3)cc2cc1NC(=O)c1coc(-c2ccncc2)n1` [II-10C], the half-inhibitory concentration (IC50) is 4.3 nM in assay [1], 25 nM in assay [2] and 2.9 nM in assay [3].

As for `COc1cc2nn(C3CCNCC3)cc2cc1NC(=O)c1ccn(-c2ccnc(C)c2)n1` [II-11C], the IC50 in assay [1] was 4.6 nM; in assay [2] it was 6.9 nM; in assay [3] it was 0.75 nM.

Take `COc1cc2nn(CCS(C)(=N)=O)cc2cc1NC(=O)c1coc(-c2ccnc(C)c2)n1` (stereo not shown) [II-12]: the concentration for half-maximal inhibition (IC50) in assay [1] was 17.9 nM; in assay [2] it was 10 nM; in assay [3] it was 0.44 nM.

For the compound `COc1cc2nn(C3CCNCC3)cc2cc1NC(=O)c1coc(-c2ccnc(C(F)(F)F)c2)n1` [II-13C], the IC50 is 14.6 nM in assay [1], 6.4 nM in assay [2] and 0.44 nM in assay [3].

With `Cc1cc(-c2nc(C(=O)Nc3cc4cn(C5CCNCC5)nc4cc3OC(C)C)co2)ccn1` [II-14C], the IC50 in assay [1] is 0.25 nM; in assay [2], 7.5 nM; in assay [3], 0.72 nM.

Take `COc1cc2nc(C3CCNCC3)cn2cc1NC(=O)c1coc(-c2ccnc(C)c2)n1` [II-15C]: the results for the IC50 in assay [1], in assay [2] and in assay [3] were 8.2 nM, 6.5 nM and 1.3 nM, respectively.

As to `Cc1cc(-c2nc(C(=O)Nc3cc4cc(CCC(C)(C)O)nn4cc3C(C)(C)O)co2)ccn1` [II-28], the IC50 in assay [1] turned out to be 3.1 nM; in assay [2] it was 16 nM; in assay [3], 0.79 nM.

As to `Cc1cc(-c2nc(C(=O)Nc3cc4cn(CCC(C)(C)O)nc4cc3C(C)(C)O)co2)ccn1` [II-49], the IC50 in assay [1] was determined as 5 nM; in assay [2], 5.1 nM; in assay [3], 0.32 nM.

Take `Cc1cc(-c2nc(C(=O)Nc3cc4cn(CCN5CC6(COC6)C5)nc4cc3C(C)(C)O)co2)ccn1` [II-51]: the IC50 in assay [1] is 16 nM; in assay [2], 6.5 nM; in assay [3], 0.32 nM.

`Cc1cc(-c2nc(C(=O)Nc3cc4cn(C5CCC(O)CC5)nc4cc3C(C)(C)O)co2)ccn1` (stereo not shown) [II-54]: the IC50 in assay [1] amounted to 35.3 nM; in assay [2] it was 23 nM; in assay [3] it was 0.78 nM.

On to `Cc1cc(-c2nc(C(=O)Nc3cc4cn(C5CCOCC5)nc4cc3C(C)(C)O)co2)ccn1` [II-56], for which the values for the IC50 in assay [1], in assay [2] and in assay [3] were 4.6 nM, 3.4 nM and 0.24 nM, respectively.

For `Cc1cc(-c2nc(C(=O)Nc3cc4cn(C5CCS(=O)(=O)CC5)nc4cc3C(C)(C)O)co2)ccn1` [II-57], the IC50 in assay [1] is 13 nM; in assay [2] it was 6.5 nM; in assay [3], 0.3 nM.

In the case of `Cc1cc(-c2nc(C(=O)Nc3cc4cn(C5CCN(CC(F)(F)F)CC5)nc4cc3C(C)(C)O)co2)ccn1` [II-59], the IC50 in assay [1] amounted to 12.5 nM; in assay [2], 4.9 nM; in assay [3], 0.63 nM.

For `Cc1cc(-c2nc(C(=O)Nc3cc4cn(CCC5CCNC5=O)nc4cc3OC3COC3)co2)ccn1` (stereo not shown) [II-64], the IC50 in assay [1] was 1.3 nM; in assay [2] it was 4.5 nM.

For the compound `CC(C)(O)CCc1cc2cc(NC(=O)c3coc(-c4ccnc(C(F)(F)F)c4)n3)c(C(C)(C)O)cn2n1` [II-92], the IC50 in assay [1] came to 63.2 nM; in assay [2] it was 4.86 nM; in assay [3], 15.5 nM.

`CC(C)(O)CCn1cc2cc(NC(=O)c3coc(-c4ccnc(C(F)(F)F)c4)n3)c(C(C)(C)O)cc2n1` [II-93]: the figures for the IC50 in assay [1], in assay [2] and in assay [3] were 21 nM, 2.7 nM and 2.2 nM, respectively.

Turning to `COc1cc2nn(C3CCNCC3)cc2cc1NC(=O)c1coc(-c2ccnc(C(F)F)c2)n1` [II-94C], the IC50 in assay [1] worked out at 10.6 nM; in assay [2], 8 nM; in assay [3] it was 0.44 nM.

Consider `COc1cc2nn(C3CCS(=N)(=O)CC3)cc2cc1NC(=O)c1coc(-c2ccnc(C)c2)n1` (stereo not shown) [II-95], for which the IC50 in assay [1] is 18 nM; in assay [2], 12 nM; in assay [3] it was 0.47 nM.

Take `COc1cc2nn(C3CCS(=O)(=O)CC3)cc2cc1NC(=O)c1coc(-c2ccnc(C)c2)n1` [II-96]: the IC50 worked out at 6.5 nM in assay [1], 3.7 nM in assay [2] and 0.22 nM in assay [3].

For `Cc1cc(-c2nc(C(=O)Nc3cc4cn(CCN5CCC(F)(F)C5)nc4cc3C(C)(C)O)co2)ccn1` [II-97], the IC50 in assay [1] came to 13.7 nM; in assay [2] it was 6.9 nM; in assay [3] it was 0.53 nM.

In the case of `Cc1cc(-c2nc(C(=O)Nc3cc4cn(CCC(C)(C)O)nc4cc3N3CCC(F)(F)C3)co2)ccn1` [II-98], the IC50 amounted to 0.3 nM in assay [1], 5.2 nM in assay [2] and 0.44 nM in assay [3].

As to `CC(C)(O)CCn1cc2cc(NC(=O)c3ccn(-c4ccnc(C(F)(F)F)c4)n3)c(C(C)(C)O)cc2n1` [II-105], the IC50 in assay [2] came out at 2.63 nM; in assay [3], 39 nM.

For `Cc1cc(-c2nc(C(=O)Nc3cc4cn(CC5(F)CN(C(=O)OC(C)(C)C)C5)nc4cc3C(C)(C)O)co2)ccn1` [II-107], the IC50 in assay [2] was determined as 9.22 nM; in assay [3], 0.73 nM.

In the case of `Cc1cc(-c2nc(C(=O)Nc3cc4cn(CCN5CC6CC5CO6)nc4cc3C(C)(C)O)co2)ccn1` (stereo not shown) [II-110], the concentration for half-maximal inhibition (IC50) came to 8.16 nM in assay [2] and 0.36 nM in assay [3].

As to `Cc1cc(-c2nc(C(=O)Nc3cc4cn(C5CC(C)(C)OC(C)(C)C5)nc4cc3C(C)(C)O)co2)ccn1` [II-116], the results for the IC50 in assay [1] and in assay [2] were 27.3 nM and 7.54 nM, respectively.

For the compound `Cc1cc(-n2ccc(C(=O)Nc3cc4oc(N5CCOCC5)nc4nc3N3CCC(O)C3)n2)ccn1` (stereo not shown) [II-123], the IC50 in assay [2] stood at 122 nM.

Turning to `Cc1cc(-c2nc(C(=O)Nc3cc4oc(N5CC6CC5CO6)nc4nc3N3CCC(O)C3)co2)ccn1` (stereo not shown) [II-125], the IC50 in assay [2] stood at 82 nM.

For `Cc1cc(-c2nc(C(=O)Nc3cc4oc(N5CCN(CC(F)(F)F)CC5)nc4nc3N3CCC(O)C3)co2)ccn1` (stereo not shown) [II-128], the IC50 was 44 nM in assay [2] and 13 nM in assay [3].

`Cc1cc(-c2nc(C(=O)Nc3cc4oc(N5CCC(C(F)(F)F)CC5)nc4nc3N3CCC(O)C3)co2)ccn1` (stereo not shown) [II-130]: the IC50 in assay [2] came to 26 nM; in assay [3], 8.9 nM.

`CC(C)(O)CCn1cc2cc(NC(=O)c3coc(-c4ccnc(C(F)(F)F)c4)n3)c(C(C)(C)O)nc2n1` [II-131]: the IC50 in assay [2] amounted to 20 nM.
